Usually EC50 stands for the midpoint of the concentration-response curve.

Molecules are shown by their SMILES.

In the experiment the target is T1, rat mGluR5 (Rattus norvegicus, UniProt P31424).
T1 construct: expressed in transfected cells; host or cells: human embryonic kidney (HEK) cells
T1 sequence (P31424 21-1203): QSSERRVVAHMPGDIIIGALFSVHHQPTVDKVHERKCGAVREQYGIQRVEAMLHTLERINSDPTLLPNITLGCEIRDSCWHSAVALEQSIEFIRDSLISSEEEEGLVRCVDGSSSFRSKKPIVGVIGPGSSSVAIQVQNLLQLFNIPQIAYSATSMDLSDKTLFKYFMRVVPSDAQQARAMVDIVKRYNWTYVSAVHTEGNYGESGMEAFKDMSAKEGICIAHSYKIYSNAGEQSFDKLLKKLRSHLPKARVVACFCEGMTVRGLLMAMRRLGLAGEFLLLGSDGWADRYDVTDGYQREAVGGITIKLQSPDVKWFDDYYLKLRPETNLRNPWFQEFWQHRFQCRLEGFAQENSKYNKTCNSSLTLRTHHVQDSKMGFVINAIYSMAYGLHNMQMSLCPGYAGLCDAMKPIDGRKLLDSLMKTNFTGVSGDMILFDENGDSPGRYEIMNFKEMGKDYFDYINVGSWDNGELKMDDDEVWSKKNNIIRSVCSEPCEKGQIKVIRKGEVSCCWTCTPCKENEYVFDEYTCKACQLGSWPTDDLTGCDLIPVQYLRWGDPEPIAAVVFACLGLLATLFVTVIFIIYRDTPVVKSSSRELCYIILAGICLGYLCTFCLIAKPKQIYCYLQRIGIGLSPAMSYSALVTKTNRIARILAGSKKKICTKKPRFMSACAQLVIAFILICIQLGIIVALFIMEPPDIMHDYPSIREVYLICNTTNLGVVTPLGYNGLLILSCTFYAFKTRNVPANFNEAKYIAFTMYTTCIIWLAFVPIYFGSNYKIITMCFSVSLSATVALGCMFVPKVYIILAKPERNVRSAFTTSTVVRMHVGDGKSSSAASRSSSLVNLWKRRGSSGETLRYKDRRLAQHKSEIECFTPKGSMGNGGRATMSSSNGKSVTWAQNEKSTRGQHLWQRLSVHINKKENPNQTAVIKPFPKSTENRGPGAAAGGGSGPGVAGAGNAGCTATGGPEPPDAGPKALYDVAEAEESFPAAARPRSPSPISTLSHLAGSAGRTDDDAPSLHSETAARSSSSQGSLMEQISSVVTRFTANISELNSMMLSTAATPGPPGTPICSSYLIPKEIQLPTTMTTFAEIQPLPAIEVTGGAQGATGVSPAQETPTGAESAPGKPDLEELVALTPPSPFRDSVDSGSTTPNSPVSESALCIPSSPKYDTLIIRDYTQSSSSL
As to the kind of experiment: Potentiation of glutamate response, Ca2+ fluorescence (FDSS) in HEK cells transfected with rat mGluR5. Type of experiment: cell-based. The conditions noted are these: Table 2; potentiation of mGluR5 response to glutamate; read-out: EC50. Here is the method:
Human embryonic kidney (HEK) cells transfected with rat mGluR5 were plated in clear bottom assay plates for assay in a Functional Drug Screening System (FDSS). The cells were loaded with a Ca^2+-sensitive fluorescent dye (e.g., Fluo-4), and the plates were washed and placed in the FDSS instrument. After establishment of a fluorescence baseline for twelve seconds, the compounds of the present invention were added to the cells, and the response in cells was measured. Five minutes later, an mGluR5 agonist (e.g., glutamate, 3,5-dihydroxyphenylglycine, or quisqualate) was added to the cells, and the response of the cells was measured. Potentiation of the agonist response of mGluR5 by the compounds in the present invention was observed as an increase in response to non-maximal concentrations of agonist (here, glutamate) in the presence of compound compared to the response to agonist in the absence of compound.
The above described assay operated in two modes. In the first mode, a range of concentrations of the present compounds were added to cells, followed by a single fixed concentration of agonist. If a compound acted as a potentiator, an EC50 value for potentiation and a maximum extent of potentiation by the compound at this concentration of agonist was determined by non-linear curve fitting. In the second mode, several fixed concentrations of the present compounds were added to various wells on a plate, followed by a range of concentrations of agonist for each concentration of present compound; the EC50 values for the agonist at each concentration of compound were determined by non-linear curve fitting. A decrease in the EC50 value of the agonist with increasing concentrations of the present compounds (a leftward shift of the agonist concentration-response curve) is an indication of the degree of mGluR5 potentiation at a given concentration of the present compound. An increase in the EC50 value of the agonist with increasing concentrations of the present compounds (a rightward shift of the agonist concentration-response curve) is an indication of the degree of mGluR5 antagonism at a given concentration of the present compound. The second mode also indicates whether the present compounds also affect the maximum response to mGluR5 to agonists.
In the case of `C[C@@H](NC(=O)c1ccc(OCc2cccc(F)c2)nc1)C(C)(C)C`, the EC50 was 0.0022 µM. Then `C[C@@H](NC(=O)c1ccc(OCc2cccc(F)c2)nc1)C1CCC1`, with 0.0066 µM; and `CC1CCCCC1NC(=O)c1ccc(OCc2ccccc2)nc1` (centres unmarked), with 0.036 µM. Then `O=C(NC1C2CC3CC(C2)CC1C3)c1ccc(OCc2ccccc2)nc1` (centres unmarked), with 0.039 µM; and `O=C(N[C@@H](C1CC1)C(F)(F)F)c1ccc(OCc2cccc(F)c2)nc1`, with 0.1 µM. Then `COc1cccc(COc2ccc(C(=O)N[C@H](C)C(C)(C)C)cn2)c1`, with 0.12 µM. In the case of `O=C(NCC1CCC1)c1ccc(OCc2ccccc2)nc1`, the EC50 is 0.13 µM. Take `Cc1cc(OCc2cccc(F)c2)ncc1C(=O)N[C@H](C)C1CCCCC1`: the EC50 was 0.13 µM. Then `C[C@@H](NC(=O)c1ccc(OCc2cccc(F)c2)nc1)C(C)(C)O`, with 0.15 µM; and `O=C(NC12CC3CC(CC(C3)C1)C2)c1ccc(OCc2ccccc2)nc1`, with 0.18 µM; and `O=C(NC1CCCC1)c1ccc(OCc2ccccc2)nc1`, with 0.18 µM. With `O=C(NC(C1CC1)C1CC1)c1ccc(OCc2cccc(F)c2)nc1` the figure was 0.3 µM.

For `C[C@@H](NC(=O)c1ccc(OCc2cccc(F)c2)nc1)C1CCOCC1`, the EC50 stood at 0.31 µM. Turning to `C[C@@H](NC(=O)c1ccc(OCc2cccc(F)c2)nc1Cl)C(C)(C)C`, the EC50 was 0.37 µM. On to `Cc1cc(C(=O)N[C@H](C)C2CCCCC2)cnc1OCc1cccc(F)c1`, for which the EC50 worked out at 0.49 µM. As for `Cc1cc(OCc2ccncc2)ncc1C(=O)Nc1ccc(F)cc1F`, the EC50 turned out to be 0.49 µM. On to `O=C(Nc1ccccc1O)c1ccc(OCc2ccccc2)nc1`, for which the EC50 is 0.52 µM. Consider `C[C@@H](NC(=O)c1ccc(OCc2ccncc2)nc1)C(C)(C)C`, for which the EC50 amounted to 0.57 µM.

`Cc1cc(OCc2ccncc2)ncc1C(=O)N[C@H](C)C1CCCCC1`: the EC50 turned out to be 0.61 µM. Then `C[C@H](NC(=O)c1ccc(OCc2cccc(F)c2)nc1)C(C)(C)O`, with 0.61 µM. `CC(NC(=O)c1ccc(OCc2cccc(F)c2)nc1)C(C)(C)O` (centres unmarked): the EC50 is 0.66 µM. Take `Cc1cc(C(=O)Nc2ccc(F)cc2F)cnc1OCc1ccncc1`: the EC50 amounted to 0.68 µM. For the compound `Cc1cc(OCc2cccc(F)c2)ncc1C(=O)N[C@H](C)C(C)(C)C`, the EC50 stood at 0.69 µM. Regarding `Cc1cc(OCc2cccc(F)c2)ncc1C(=O)Nc1ccc(F)cc1F`, the EC50 stood at 0.92 µM. In the case of `Cc1cc(OCc2cccc(F)c2)ncc1C(=O)NCCC(C)(C)C`, the EC50 stood at 0.96 µM. Regarding `CC(NC(=O)c1ccc(OCc2cccc(F)c2)nc1)C(C)(C)CO` (centres unmarked), the EC50 worked out at 1 µM. With `CC(C)(C)CC(C)(C)NC(=O)c1ccc(OCc2cccc(F)c2)nc1`, the EC50 worked out at 1.1 µM. With `C[C@@H](NC(=O)c1cnc(OCc2cccc(F)c2)cc1C(F)(F)F)C(C)(C)C`, the EC50 was determined as 1.2 µM. Regarding `Cc1cc(C(=O)NCCC(C)(C)C)cnc1OCc1cccc(F)c1`, the EC50 came to 1.3 µM.

`CC[C@@H](C)NC(=O)c1ccc(OCc2cccc(F)c2)nc1`: the EC50 turned out to be 1.3 µM. For `C[C@@H](NC(=O)c1ccc(OCc2cccc(F)c2)nc1)C1CCOC(C)(C)C1` (some centres unmarked), the EC50 was determined as 1.7 µM. As for `Cc1cc(OCc2ccncc2)ncc1C(=O)NCCC(C)(C)C`, the concentration for a half-maximal effect (EC50) was 1.7 µM.

`O=C(NC1CC(O)(C(F)(F)F)C1)c1ccc(OCc2cccc(F)c2)nc1` (centres unmarked): the EC50 amounted to 1.8 µM. Regarding `C[C@@H](NC(=O)c1cnc(OCc2ccncc2)c(C#N)c1)C1CCCCC1`, the EC50 is 1.9 µM. With `COc1cc(C(=O)NCCC(C)(C)C)cnc1OCc1cccc(F)c1` the figure was 1.9 µM; with `COC[C@@H](NC(=O)c1ccc(OCc2cccc(F)c2)nc1)C(C)(C)C`, 1.9 µM. For the compound `O=C(N[C@H]1CCCC[C@@H]1O)c1ccc(OCc2ccccc2)nc1`, the EC50 was 2.8 µM. In the case of `COCC(C)NC(=O)c1ccc(OCc2cccc(F)c2)nc1` (centres unmarked), the EC50 stood at 3 µM. Consider `CC(C)(C)[C@@H](CO)NC(=O)c1ccc(OCc2cccc(F)c2)nc1`, for which the EC50 is 3.2 µM. `COc1ccccc1NC(=O)c1ccc(OCc2ccccc2)nc1`: the EC50 was 3.4 µM. In the case of `COc1ccc(F)cc1COc1ccc(C(=O)N[C@H](C)C(C)(C)C)cn1`, the EC50 worked out at 3.5 µM. Turning to `C[C@@H](NC(=O)c1cnc(OCc2ccncc2)c(Br)c1)C1CCCCC1`, the EC50 came to 3.6 µM.

In the case of `Cc1cc(C(=O)N[C@H](C)C2CCCCC2)cnc1OCc1ccncc1`, the EC50 stood at 3.6 µM. Consider `CC(NC(=O)c1ccc(OCc2cccc(F)c2)nc1)C1CCCOC1` (centres unmarked), for which the EC50 is 3.7 µM. For `CC(C)(C)CCNC(=O)c1cnc(OCc2cccc(F)c2)c(C#N)c1`, the concentration for a half-maximal effect (EC50) amounted to 3.9 µM. With `CC(C)(C)CCNC(=O)c1cnc(OCc2ccncc2)c(Br)c1` the figure was 3.9 µM; with `CC(COC(C)(C)C)NC(=O)c1ccc(OCc2cccc(F)c2)nc1` (centres unmarked), 4.2 µM. On to `COc1ccc(COc2ccc(C(=O)N[C@H](C)C(C)(C)C)cn2)cc1F`, for which the EC50 was 4.6 µM.

Turning to `COc1cc(F)cc(COc2ccc(C(=O)N[C@H](C)C(C)(C)C)cn2)c1`, the EC50 is 5.1 µM.

Regarding `COc1c(F)cccc1COc1ccc(C(=O)N[C@H](C)C(C)(C)C)cn1`, the EC50 is 5.2 µM. Regarding `Cc1cc(C(=O)NCCC(C)(C)C)cnc1OCc1ccncc1`, the EC50 amounted to 5.3 µM. With `COc1ccc(COc2ccc(C(=O)N[C@H](C)C(C)(C)C)cn2)cc1`, the EC50 was 5.4 µM. For `CC(C)(C)CCNC(=O)c1ccc(OCc2cc(F)cc(Br)c2)nc1`, the EC50 was over 10 µM. As to `Cc1cc(C(=O)Nc2ccc(F)cc2F)cnc1OCc1cccc(F)c1`, the EC50 is over 10 µM.

As to `C[C@@H](NC(=O)c1cnc(OCc2ccncc2)c(C(F)(F)F)c1)C1CCCCC1`, the EC50 was over 10 µM. Turning to `CC(C)(C)CCNC(=O)c1cnc(OCc2ccncc2)c(C#N)c1`, the EC50 was over 10 µM. As to `C[C@@H](NC(=O)c1cnc(OCc2cccc(F)c2)c(C(F)(F)F)c1)C1CCCCC1`, the EC50 was over 10 µM. `COc1nc(OCc2cccc(F)c2)ccc1C(=O)NCCC(C)(C)C`: the concentration for a half-maximal effect (EC50) is over 10 µM. As for `COc1nc(OCc2cccc(F)c2)ccc1C(=O)N[C@H](C)C1CCCCC1`, the EC50 is over 10 µM. Then `C[C@H](CN1CCC(F)(F)C1)NC(=O)c1ccc(OCc2cccc(F)c2)nc1`, with over 10 µM; and `C[C@H](CN1CCC(C(F)(F)F)CC1)NC(=O)c1ccc(OCc2cccc(F)c2)nc1`, with over 10 µM.

Turning to `COc1ccccc1COc1ccc(C(=O)N[C@H](C)C(C)(C)C)cn1`, the EC50 is over 10 µM. Then `CC(NC(=O)c1ccc(OCc2cccc(F)c2)nc1)C1CCCCO1` (centres unmarked), with over 10 µM; and `O=C(NC(c1ccccn1)C(F)(F)F)c1ccc(OCc2cccc(F)c2)nc1` (centres unmarked), with over 10 µM; and `CC1(CCNC(=O)c2ccc(OCc3cccc(F)c3)nc2)COC1`, with over 10 µM. On to `CC(C)(C)OCCNC(=O)c1ccc(OCc2cccc(F)c2)nc1`, for which the EC50 is over 10 µM.

Turning to `CC(Oc1ccc(C(=O)N[C@H](C)C(C)(C)C)cn1)c1cccc(F)c1` (some centres unmarked), the EC50 is over 10 µM.

On to `CC1(O)CC(NC(=O)c2ccc(OCc3cccc(F)c3)nc2)C1` (centres unmarked), for which the EC50 was over 10 µM. Then `C[C@]1(O)CCC[C@@H]1NC(=O)c1ccc(OCc2cccc(F)c2)nc1`, with over 10 µM; and `C[C@@H](NC(=O)c1ccc(OCc2cccc(F)c2)[nH]c1=O)C(C)(C)C`, with over 10 µM; and `C[C@H](NC(=O)c1ccc(OCc2cccc(F)c2)nc1Cl)C(C)(C)C`, with over 10 µM.
